Experimental data as given in PubChem BioAssay (NCI).
“And” between values parts separate entries of the source, which are not always exact repeats. Equal values may be shown once.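 Growth conditions: 96-well plates. Treatment: test compound, 48 hours, 5 concentrations. Analysis: linear interpolation between bracketing concentrations; unreached endpoints set to highest concentration. Abbreviation: GI50, concentration required for 50% inhibition of growth. At the TGI there is no net growth.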 Where a SMILES comes first, the peptide text is derived from it. [ ]: non-standard residue; d: D form. The star is where a group is joined. ξ: configuration not given here. ξD = NC(CC(=O)O)C(=O)O; Ac3c = NC1(C(=O)O)CC1; Boc = CC(C)(C)OC(=O)*; OBn = c1ccc(CO*)cc1

Legend:
Test in all cases: inhibition of tumour cell growth, NCI panel, 48 h
786-0 renal = test system: 786-0 renal
HOP-92 NSCLC = test system: HOP-92 NSCLC
MALME-3M melanoma = test system: MALME-3M melanoma
MDA-N = test system: MDA-N
NCI/ADR-RES ovarian = test system: NCI/ADR-RES ovarian
OVCAR-4 ovarian = test system: OVCAR-4 ovarian
OVCAR-5 ovarian = test system: OVCAR-5 ovarian
SF-268 CNS = test system: SF-268 CNS
SK-MEL-28 melanoma = test system: SK-MEL-28 melanoma
UACC-257 melanoma = test system: UACC-257 melanoma

Compound	TGI (786-0 renal)	TGI (HOP-92 NSCLC) [µM]	TGI (MALME-3M melanoma)	TGI (MDA-N) [µM]	TGI (NCI/ADR-RES ovarian) [µM]	TGI (OVCAR-4 ovarian) [µM]	TGI (OVCAR-5 ovarian)	TGI (SF-268 CNS)	TGI (SK-MEL-28 melanoma)	TGI (UACC-257 melanoma)	GI50 (OVCAR-5 ovarian) [µM]	GI50 (SK-MEL-28 melanoma) [µM]	GI50 (UACC-257 melanoma) [µM]
C=CCN(c1cc(OCc2ccccc2)c(NC(C)=O)cc1[N+](=O)[O-])S(C)(=O)=O	49.2 µM	41.2	73.2 µM	> 100	> 100	> 100	> 100 µM	51.3 µM	> 100 µM	> 100 µM	–	–	–
CC(=Nc1c2ccccc2nc2ccccc12)N(C)C	> 100 µM	37.2	> 100 µM	90.3	54.8	90.8	> 100 µM	> 100 µM	61.5 µM	43.5 µM	–	–	–
COc1cc(/C=C2\N=C(c3ccccc3)N(/N=C3\C(=O)Nc4ccccc43)C2=O)cc(OC)c1OC	> 100 µM	> 100	> 100 µM	> 100	> 100	> 100	> 100 µM	> 100 µM	> 100 µM	> 100 µM	–	–	–
CCOC(=O)C(NC(=O)CC(C)C)(Nc1ccc(C(F)(F)F)cc1)C(F)(F)F (stereo not drawn)	> 100 µM	> 100	> 100 µM	> 100	> 100	> 100	> 100 µM	> 100 µM	> 100 µM	> 100 µM	–	–	–
C=C1C(=O)O[C@H]2C/C(C)=C/CC/C(C)=C/CC[C@@](C)(O)[C@@H](I)C[C@@H]12	10.6 µM	9.82	22.3 µM	13.3	24.7	15.4	30.2 µM	31.9 µM	30 µM	25.5 µM	–	–	–
O=C1CCC2(CC1CCSc1ccccc1)OCCO2 (stereo not drawn)	> 100 µM	> 100	> 100 µM	> 100	> 100	> 100	> 100 µM	> 100 µM	> 100 µM	> 100 µM	–	–	–
CC1(C)CN(c2ccccc2)C(=O)C1OC(=O)[C@@]1(C)C[C@@H]2C=C[C@H]1C2 (stereo partly drawn)	39.2 µM	60.6	28.3 µM	41.6	52.2	39.9	56.6 µM	82.5 µM	35.1 µM	42.5 µM	–	–	–
CN(C)CCCNc1c2ccccc2nc2cccc([N+](=O)[O-])c12	0.0058 µM and 0.0531 µM	0.00435	0.00221 µM and 0.0136 µM	0.00246	0.186	< 0.001	0.0214 µM and 0.0509 µM	0.00943 µM and 0.0426 µM	0.00689 µM and 0.0422 µM	0.00749 µM and 0.0452 µM	0.0197	0.0202	0.0207
COC(=O)C1(NC(=O)C(CC(=O)OCc2ccccc2)NC(=O)OC(C)(C)C)CC1 (stereo not drawn) (Boc-[ξD](OBn)-[Ac3c]-OMe)	> 100 µM	> 100	> 100 µM	> 100	> 100	> 100	> 100 µM	> 100 µM	> 100 µM	> 100 µM	–	–	–
COC(=O)/C=C\C(C#N)(C#N)N=Cc1ccc(C)s1	3.2 µM	3.24	3.09 µM	6.94	28.7	13.1	15.9 µM	19.1 µM	9.64 µM	7.71 µM	–	–	–
CN(C)CCOC(=O)c1ccc(N)cc1	> 100 µM	49.5	> 100 µM	> 100	> 100	> 100	> 100 µM	> 100 µM	67.5 µM	54 µM	–	–	–
O=C(OCCN1CCCCC1)C(c1ccccc1)C1(O)CCSCC1 (stereo not drawn)	> 100 µM	> 100	> 100 µM	> 100	> 100	> 100	> 100 µM	> 100 µM	> 100 µM	> 100 µM	–	–	–
COc1ccc2c(c1)nc1n2C(N)=Nc2ccccc2S1	> 34.1 µM	63.5	> 100 µM	> 100	> 100	> 100	> 100 µM	> 100 µM	> 100 µM	> 100 µM	–	–	–
Cc1cc(Nc2ccc(N=Nc3ccc(O)c4ncccc34)cc2)nc(C)n1	54.2 µM	46.7	44.6 µM	42.8	61	71.7	> 87.9 µM	> 51.9 µM	> 68.7 µM	43.8 µM	–	–	–
CC(C)(C)n1c(=O)n(C(=O)C(Cl)(Cl)Cl)n(C(=O)C(Cl)(Cl)Cl)c1=O	> 100 µM	> 100	> 100 µM	> 100	> 100	> 100	> 100 µM	> 100 µM	> 100 µM	> 100 µM	–	–	–
COc1c(OC)c(O)c2c(=O)c(OC)c(-c3ccc4c(c3)OCO4)oc2c1O	> 100 µM	> 100	> 100 µM	> 100	> 100	> 100	> 100 µM	> 100 µM	> 100 µM	> 100 µM	–	–	–
O=C(c1ccccc1)c1c(C(F)(F)F)n([O-])c2cc(Cl)c(Cl)cc2[n+]1=O	0.959 µM	19.9	5.33 µM	4.17	6.36	3.12	3.41 µM	1.41 µM	7.19 µM	1.97 µM	–	–	–
O=C(/C=C/c1ccc(-c2ccccc2)cc1)NCc1ccc(C(=O)NCCc2c[nH]c3ccccc23)cc1	26.7 µM	> 100	> 100 µM	> 100	> 100	72.1	66.6 µM	> 100 µM	> 100 µM	> 100 µM	–	–	–
